Assay results taken from article PMC3234597, “Two Panels of Steroid Receptor Luciferase Reporter Cell Lines for Compound Profiling” (Combinatorial Chemistry & High Throughput Screening, 2011).
Structures can show the parent of a compound that is named as a salt. Where two headings read alike, the source gives them in different places.

Legend:
Assay type in all cases: cell-based
PR-LBD fused to Gal4-DBD = target: T1, PR-LBD fused to Gal4-DBD (Homo sapiens, UniProt P06401); experiment: U2OS-PR-LBD/9xGal4UAS luciferase reporter cell line
T1 construct: PR-LBD region was PCR amplified using the following primer combination; host or cells: U2OS
T1 sequence (P06401 679-913 limits assumed): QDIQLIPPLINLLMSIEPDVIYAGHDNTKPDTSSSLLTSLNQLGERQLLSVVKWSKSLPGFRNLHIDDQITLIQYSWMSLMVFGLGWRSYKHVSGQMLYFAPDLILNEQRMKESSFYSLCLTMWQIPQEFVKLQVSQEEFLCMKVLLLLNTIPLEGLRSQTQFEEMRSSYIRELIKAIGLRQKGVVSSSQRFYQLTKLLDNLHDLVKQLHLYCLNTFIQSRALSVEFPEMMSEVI

MR-LBD fused to Gal4-DBD = target: T2, MR-LBD fused to Gal4-DBD (Homo sapiens, UniProt P08235); experiment: U2OS-MR-LBD/9xGal4UAS luciferase reporter cell line
T2 construct: MR-LBD was cloned by RT-PCR from total RNA isolated from HEK293 cells; expressed in transfected cells; host or cells: U2OS
T2 sequence (P08235 726-964 limits assumed): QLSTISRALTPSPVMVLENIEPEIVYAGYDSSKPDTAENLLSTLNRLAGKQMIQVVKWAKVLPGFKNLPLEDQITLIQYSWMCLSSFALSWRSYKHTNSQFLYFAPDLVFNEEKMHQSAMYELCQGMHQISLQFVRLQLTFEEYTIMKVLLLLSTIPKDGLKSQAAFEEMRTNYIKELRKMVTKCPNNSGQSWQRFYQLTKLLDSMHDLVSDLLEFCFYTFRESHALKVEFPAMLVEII

human MR (full-length) = target: T3, human MR (full-length) (Homo sapiens, UniProt P08235); experiment: U2OS-MR/MMTV luciferase reporter cell line (full-length receptor)
T3 construct: expression vectors encoding full-length steroid receptors: pcDNA3-hAR, pcDNA3-hGR and pcDNA3-hMR; expressed in transfected cells; host or cells: U2OS
T3 sequence (P08235 1-984): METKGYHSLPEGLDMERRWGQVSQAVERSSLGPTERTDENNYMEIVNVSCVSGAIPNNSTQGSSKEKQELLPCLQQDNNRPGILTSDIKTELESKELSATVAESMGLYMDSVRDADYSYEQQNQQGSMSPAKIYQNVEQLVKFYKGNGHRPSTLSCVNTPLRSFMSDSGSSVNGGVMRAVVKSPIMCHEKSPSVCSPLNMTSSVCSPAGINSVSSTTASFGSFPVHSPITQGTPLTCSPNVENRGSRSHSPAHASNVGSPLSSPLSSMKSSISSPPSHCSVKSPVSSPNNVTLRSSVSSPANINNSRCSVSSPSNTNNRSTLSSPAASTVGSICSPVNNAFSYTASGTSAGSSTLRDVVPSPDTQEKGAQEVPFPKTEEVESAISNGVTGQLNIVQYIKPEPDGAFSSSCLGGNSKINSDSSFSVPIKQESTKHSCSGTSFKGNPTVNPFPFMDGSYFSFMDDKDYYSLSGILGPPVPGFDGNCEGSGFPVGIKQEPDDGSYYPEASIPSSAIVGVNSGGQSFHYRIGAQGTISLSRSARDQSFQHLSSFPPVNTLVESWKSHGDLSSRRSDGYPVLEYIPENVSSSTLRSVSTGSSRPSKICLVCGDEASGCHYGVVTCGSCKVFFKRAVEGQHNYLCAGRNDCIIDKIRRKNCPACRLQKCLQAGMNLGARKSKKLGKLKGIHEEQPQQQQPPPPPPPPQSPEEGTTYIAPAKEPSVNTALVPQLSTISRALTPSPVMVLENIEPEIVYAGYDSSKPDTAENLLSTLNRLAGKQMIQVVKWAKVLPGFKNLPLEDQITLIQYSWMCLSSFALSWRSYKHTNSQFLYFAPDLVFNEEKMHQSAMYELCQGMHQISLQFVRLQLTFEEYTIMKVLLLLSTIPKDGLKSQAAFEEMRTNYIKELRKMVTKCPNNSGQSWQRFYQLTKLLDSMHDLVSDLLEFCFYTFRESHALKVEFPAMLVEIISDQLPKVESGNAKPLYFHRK

human GR (full-length) [1] = target: T4, human GR (full-length) (Homo sapiens, UniProt P04150); experiment: U2OS-GR/MMTV luciferase reporter cell line (full-length receptor)
T4 construct: expression vectors encoding full-length steroid receptors: pcDNA3-hAR and pcDNA3-hGR; host or cells: U2OS
T4 sequence (P04150 1-777): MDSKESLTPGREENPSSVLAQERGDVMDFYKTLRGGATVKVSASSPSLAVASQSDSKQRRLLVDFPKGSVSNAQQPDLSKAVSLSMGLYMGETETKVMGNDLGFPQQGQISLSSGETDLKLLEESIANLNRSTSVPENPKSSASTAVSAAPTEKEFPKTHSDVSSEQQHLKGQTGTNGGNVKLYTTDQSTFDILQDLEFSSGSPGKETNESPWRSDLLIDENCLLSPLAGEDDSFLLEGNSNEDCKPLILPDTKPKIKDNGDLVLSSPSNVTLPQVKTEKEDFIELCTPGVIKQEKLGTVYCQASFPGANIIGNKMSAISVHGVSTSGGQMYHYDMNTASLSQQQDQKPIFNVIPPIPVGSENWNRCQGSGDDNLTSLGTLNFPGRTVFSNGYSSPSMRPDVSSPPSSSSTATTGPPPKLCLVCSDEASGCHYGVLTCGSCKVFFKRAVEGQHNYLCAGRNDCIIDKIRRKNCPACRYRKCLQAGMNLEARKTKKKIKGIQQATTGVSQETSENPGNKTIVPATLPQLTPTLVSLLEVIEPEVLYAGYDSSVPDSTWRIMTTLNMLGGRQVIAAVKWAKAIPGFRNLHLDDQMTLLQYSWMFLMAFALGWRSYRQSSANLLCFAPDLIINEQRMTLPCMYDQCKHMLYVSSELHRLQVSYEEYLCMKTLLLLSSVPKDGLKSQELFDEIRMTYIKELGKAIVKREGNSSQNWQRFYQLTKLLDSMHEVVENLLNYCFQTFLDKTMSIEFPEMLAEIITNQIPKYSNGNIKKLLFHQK

human GR (full-length) [2] = target: T4, human GR (full-length); experiment: U2OS-GR/3xGRE luciferase reporter cell line (full-length receptor)
GR-LBD fused to Gal4-DBD = target: T5, GR-LBD fused to Gal4-DBD (Homo sapiens, UniProt P04150); experiment: U2OS-GR-LBD/9xGal4UAS luciferase reporter cell line
T5 construct: expressed in transfected cells; host or cells: U2OS
T5 sequence (P04150 524-758 limits assumed): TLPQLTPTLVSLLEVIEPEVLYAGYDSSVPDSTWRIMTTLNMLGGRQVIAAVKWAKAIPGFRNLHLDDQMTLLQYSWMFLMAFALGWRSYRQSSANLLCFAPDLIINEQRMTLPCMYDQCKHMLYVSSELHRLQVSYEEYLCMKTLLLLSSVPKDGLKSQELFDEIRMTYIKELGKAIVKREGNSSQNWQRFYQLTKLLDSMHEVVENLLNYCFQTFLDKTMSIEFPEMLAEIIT

[3] = target: T6, ERβ-LBD fused to Gal4-DBD (Homo sapiens, UniProt Q92731); experiment: U2OS-ERβ-LBD/9xGal4UAS luciferase reporter cell line
T6 construct: region comprising ERβ-LBD and a piece of the hinge region; expressed in transfected cells; host or cells: U2OS

human ERβ (full-length) = target: T7, human ERβ (full-length) (Homo sapiens, UniProt Q92731); experiment: U2OS-ERβ/3xERE luciferase reporter cell line (full-length receptor)
T7 construct: expression vectors encoding full-length steroid receptors: pcDNA3-hERα and pcDNA3-ERβ; expressed in transfected cells; host or cells: U2OS
T7 sequence (Q92731 whole entry): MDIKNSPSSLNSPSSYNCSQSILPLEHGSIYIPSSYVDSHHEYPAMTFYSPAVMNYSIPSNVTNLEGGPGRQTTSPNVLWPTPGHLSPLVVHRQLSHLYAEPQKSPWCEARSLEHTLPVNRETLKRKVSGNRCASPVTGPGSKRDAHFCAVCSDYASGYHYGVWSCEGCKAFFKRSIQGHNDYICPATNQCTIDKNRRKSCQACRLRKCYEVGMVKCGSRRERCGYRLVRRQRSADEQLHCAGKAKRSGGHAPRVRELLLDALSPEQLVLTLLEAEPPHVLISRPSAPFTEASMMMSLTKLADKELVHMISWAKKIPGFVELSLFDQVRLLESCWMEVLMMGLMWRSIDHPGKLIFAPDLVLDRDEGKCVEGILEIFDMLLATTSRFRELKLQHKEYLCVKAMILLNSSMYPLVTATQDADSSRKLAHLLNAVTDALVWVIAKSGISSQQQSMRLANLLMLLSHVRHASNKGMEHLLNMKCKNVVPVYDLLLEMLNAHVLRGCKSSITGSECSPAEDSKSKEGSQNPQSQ

T6 sequence (Q92731 264-498 limits assumed): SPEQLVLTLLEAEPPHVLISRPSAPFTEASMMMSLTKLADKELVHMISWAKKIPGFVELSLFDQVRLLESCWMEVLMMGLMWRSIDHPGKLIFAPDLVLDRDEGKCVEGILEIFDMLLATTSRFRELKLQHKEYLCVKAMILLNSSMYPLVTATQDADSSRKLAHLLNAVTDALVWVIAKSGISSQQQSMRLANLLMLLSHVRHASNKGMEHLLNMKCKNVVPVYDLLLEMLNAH

C[C@]12CCC(=O)C[C@@H]1CC[C@@H]1[C@@H]2CC[C@]2(C)[C@@H](O)CC[C@@H]12 [Dihydrotestosterone, 5α-androstan-17β-ol-3-one]
EC50 (PR-LBD fused to Gal4-DBD): 0.398 µM
IC50 (PR-LBD fused to Gal4-DBD): > 10 µM
EC50 (MR-LBD fused to Gal4-DBD): > 10 µM
EC50 (human MR (full-length)): > 10 µM

CC#C[C@]1(O)CC[C@H]2[C@@H]3CCC4=CC(=O)CCC4=C3[C@@H](c3ccc(N(C)C)cc3)C[C@@]21C [Mifepristone (RU486), mifepristone]
activity profile in words (human GR (full-length) [1]; full-length GR reporter cell line U2OS-GR/MMTV): partial agonist/full antagonist
activity profile in words (human GR (full-length) [2]; full-length GR reporter cell line U2OS-GR/3xGRE): partial agonist/full antagonist
activity profile in words (GR-LBD fused to Gal4-DBD; GR LBD format (U2OS-GR-LBD/9xGal4UAS)): very potent pure full antagonist

CC1(C)NC(=O)N(c2ccc([N+](=O)[O-])c(C(F)(F)F)c2)C1=O [Nilutamide, nilutamide]
IC50 (PR-LBD fused to Gal4-DBD; antagonist mode, PR-LBD/9xGal4UAS, log10 of molar IC50, mean ± SEM, read-out: Log IC50 (converted)): > 10 µM
EC50 (PR-LBD fused to Gal4-DBD; read-out: Log EC50 (converted)): > 10 µM
EC50 ([3]; read-out: Log EC50 (converted)): > 10 µM
EC50 (MR-LBD fused to Gal4-DBD; read-out: Log EC50 (converted)): > 10 µM
EC50 (human MR (full-length); read-out: Log EC50 (converted)): > 10 µM
EC50 (human ERβ (full-length); read-out: Log EC50 (converted)): > 10 µM

O=C(c1ccc(OCCN2CCCCC2)cc1)c1c(-c2ccc(O)cc2)sc2cc(O)ccc12 [Raloxifene hydrochloride, raloxifene hydrochloride]
EC50 (MR-LBD fused to Gal4-DBD; read-out: Log EC50 (converted)): > 10 µM
EC50 (human MR (full-length); read-out: Log EC50 (converted)): > 10 µM

CC/C(=C(\c1ccccc1)c1ccc(OCCN(C)C)cc1)c1ccccc1 [Tamoxifen citrate, tamoxifen citrate]
EC50 (human GR (full-length) [1]; read-out: Log EC50 (converted)): > 10 µM
EC50 (MR-LBD fused to Gal4-DBD; read-out: Log EC50 (converted)): > 10 µM
EC50 (human MR (full-length); read-out: Log EC50 (converted)): > 10 µM
EC50 (human GR (full-length) [2]; read-out: Log EC50 (converted)): > 10 µM
EC50 (GR-LBD fused to Gal4-DBD; read-out: Log EC50 (converted)): > 10 µM

C[C@]12CC[C@H]3[C@@H](CCC4=CC(=O)CC[C@@]43C)[C@@H]1CC[C@@H]2O [Testosterone, testosterone]
EC50 (PR-LBD fused to Gal4-DBD): 0.0468 µM
IC50 (PR-LBD fused to Gal4-DBD): > 10 µM
EC50 [3]: 2.88 µM
EC50 (human GR (full-length) [1]): > 10 µM
EC50 (MR-LBD fused to Gal4-DBD): > 10 µM
EC50 (human MR (full-length)): > 10 µM
EC50 (human GR (full-length) [2]): > 10 µM
EC50 (human ERβ (full-length)): 0.49 µM
EC50 (GR-LBD fused to Gal4-DBD): > 10 µM
